PMC5628579, “Potent mechanism-based sirtuin-2-selective inhibition by an in situ-generated occupant of the substrate-binding site, “selectivity pocket” and NAD^+-binding site” (Chemical Science, 2017)

Columns and labels:
SIRT5 = biological target: T1, SIRT5 (Homo sapiens, UniProt Q9NXA8); assay: Fluor de Lys SIRT5 assay
T1 sequence (Q9NXA8 37-310): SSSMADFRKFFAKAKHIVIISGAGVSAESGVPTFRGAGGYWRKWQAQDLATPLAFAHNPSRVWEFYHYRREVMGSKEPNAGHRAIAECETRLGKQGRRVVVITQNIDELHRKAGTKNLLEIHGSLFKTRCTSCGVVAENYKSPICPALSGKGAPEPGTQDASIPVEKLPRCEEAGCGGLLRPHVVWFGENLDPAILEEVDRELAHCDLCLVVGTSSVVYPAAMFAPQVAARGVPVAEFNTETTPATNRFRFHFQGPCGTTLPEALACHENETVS

SIRT3 = biological target: T2, SIRT3 (Homo sapiens, UniProt Q9NTG7); assay: Fluor de Lys SIRT3 assay
T2 sequence (Q9NTG7 1-399): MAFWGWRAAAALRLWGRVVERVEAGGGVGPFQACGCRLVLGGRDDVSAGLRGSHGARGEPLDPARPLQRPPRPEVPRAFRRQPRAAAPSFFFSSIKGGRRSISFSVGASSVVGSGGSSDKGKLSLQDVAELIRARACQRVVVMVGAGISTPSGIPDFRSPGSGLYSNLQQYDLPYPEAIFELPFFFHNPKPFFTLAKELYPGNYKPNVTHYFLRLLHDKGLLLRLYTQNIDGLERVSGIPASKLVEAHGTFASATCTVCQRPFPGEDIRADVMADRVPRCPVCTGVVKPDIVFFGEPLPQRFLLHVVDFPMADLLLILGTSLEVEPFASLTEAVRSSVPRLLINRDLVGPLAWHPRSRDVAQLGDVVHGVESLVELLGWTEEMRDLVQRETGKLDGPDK

MDA-MB-231 cells = assay: Cell growth assay (AlamarBlue), MDA-MB-231; format: cell-based, human; conditions: 72 h of treatment
[1] = system: acetylated α-tubulin (SIRT2 substrate); assay: Western blot of acetylated α-tubulin in MDA-MB-231 cells; format: cell-based, human; conditions: 20 μM, 6 h
Method: MCF-7 and MDA-MB-231 cells were plated in 96-well plates (initial density: 1 × 10^3 cells per well) and incubated at 37 °C. After 24 h, test compound solutions (50 μL/well) of varying concentrations in medium (DMEM and Leibovitz's L-15 for MCF-7 and MDA-MB-231 cells respectively) for were added to the cells at 37 °C under 5% CO2 in air and left to react for 72 h. Thereafter, the mixtures were treated with 10 μL of AlamarBlue® (AbD Serotec, #BUF012A), incubation was continued at 37 °C for 3 h. The fluorescence in each well was measured with an ARVOTM X3 microplate reader (λex = 540 nm; λem = 590 nm). With the obtained fluorescence readings, it was possible to calculate the percentage of cell growth.
MDA-MB-231 cells (5 × 10^5 cells/2 mL/dish) were treated for 6 h with the test compounds at the indicated concentrations in the cell culture medium, before the cells were collected and extracted with SDS buffer. The protein concentrations of the lysates were determined using a BCA protein assay.
Equivalent amounts of protein from each lysate were resolved in 5–20% SDS-polyacrylamide gels and transferred onto PVDF membranes. […]
For the differentiation study, the medium was changed to DMEM supplemented with 2% FBS. After incubation with or without 36 for 72 h, the cell morphology was examined using a microscope (Olympus CKX41) and further analyzed with the Photomeasure software (Kenis Ltd.). […]

[2] = HPLC stability under SIRTs assay conditions; format: physicochemical; conditions: buffer pH 8.0, 30 °C, 0–200 min
Method: HPLC stability of 36 under SIRTs assay conditions
Compound 36 (10 μL, 0.5 mM) in DMSO/buffer (50 mM Tris/HCl, pH = 8.0, 137 mM NaCl, 2.7 mM KCl, 1 mM MgCl2) was added to selected wells, followed by 40 μL of buffer (50 mM Tris/HCl, pH = 8.0, 137 mM NaCl, 2.7 mM KCl, 1 mM MgCl2). The obtained solution was incubated at 30 °C and 250 rpm for 0, 50, 100, 150, and 200 min. At the end of each incubation time, the wells were diluted with CH3CN (50 μL, HPLC grade). The entire volume (100 μL) was transferred to a Cosmospin filter H (0.45 μm) and 20 μL of the filtrate were injected in the HPLC instrument. Column:
(90%), 30–40 min (90–10%). The peak area was determined at 220 nm. […]

inhibition at 10 µM (SIRT5; read-out: % inhibition at 10 μM SIRT5): 4 ± 2.6% | inhibition at 50 µM (SIRT5; read-out: % inhibition at 50 μM SIRT5): 10% | IC50 (SIRT3): 9.49 ± 1.7 µM | inhibition at 1 µM (SIRT3; read-out: % inhibition at 1 μM SIRT3): 2 ± 1.8% | GI50 (MDA-MB-231 cells): 8.43 ± 0.24 µM | GI50 (MDA-MB-231 cells; Homo sapiens, MDA-MB-231, 72 h): 8.3 µM | HPLC stability under SIRTs assay conditions [2]: stable
Compound: C[C@H](NC(=O)[C@H](CCCCNC(=S)CNC(=O)c1ccccc1Nc1cccc(OCCc2ccccc2)c1)NC(=O)OCc1ccccc1)C(N)=O [Compound 36]
acetylated α-tubulin level (western blot) [1]: induced the accumulation of acetylated α-tubulin
